Where two headings read alike, the source gives them in different places.
Target: T1, hENT1 (Homo sapiens, UniProt Q99808)
T1 construct: performed on erythrocyte cell membranes endogenously expressing the transporter; tissue Sanquin Bloedvoorziening, Amsterdam, The Netherlands; host or cells: erythrocyte membranes (endogenous expression)
T1 sequence (Q99808 1-456): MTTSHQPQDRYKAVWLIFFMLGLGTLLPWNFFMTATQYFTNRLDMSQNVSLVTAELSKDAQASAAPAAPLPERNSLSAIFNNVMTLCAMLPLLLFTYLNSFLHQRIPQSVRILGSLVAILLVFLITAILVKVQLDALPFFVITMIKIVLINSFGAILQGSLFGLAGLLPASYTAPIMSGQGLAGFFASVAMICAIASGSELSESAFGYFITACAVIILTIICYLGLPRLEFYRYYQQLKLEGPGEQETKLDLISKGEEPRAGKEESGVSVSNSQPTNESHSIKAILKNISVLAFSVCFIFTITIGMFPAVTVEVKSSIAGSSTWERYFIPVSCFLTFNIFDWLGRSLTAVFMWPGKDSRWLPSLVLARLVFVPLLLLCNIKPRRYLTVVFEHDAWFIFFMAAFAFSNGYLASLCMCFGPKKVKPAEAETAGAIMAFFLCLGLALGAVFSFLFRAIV
Test: time-dependent hENT1 radioligand binding assay ([3H]NBTI displacement with or without 4 h preincubation)
Conditions: for % displacement at 1 μM at 4 h preincubation / % displacement at 1 μM without preincubation / [3H]NBTI displacement: 1 µM inhibitor; for % displacement at 1 μM at 4 h preincubation / % displacement at 1 μM without preincubation: mean (individual values) of two experiments; for [3H]NBTI displacement: with or without 4 h preincubation not told apart; for time-dependent shift in affinity (pKi shift) or displacement upon 4 h preincubation: 4 h preincubation vs without preincubation
Experimental: Radioligand displacement assays were performed as previously described. In brief, the experiments were performed on erythrocyte membranes (Sanquin Bloedvoorziening, Amsterdam, The Netherlands) using a single concentration of 1 µM or multiple concentrations (ranging from 10^–10 to 10^–6) of unlabeled inhibitors in the presence of 4 nM [^3H]NBTI at 10 °C for 1 h in assay buffer (50 mM Tris–HCl, pH 7.4, 0.1% w/v CHAPS). Non-specific binding (NSB) was assessed with 10 µM unlabeled NBTI. […] Subsequently, [^3H]NBTI was added to the preincubated and control samples (containing erythrocyte membranes, unlabeled inhibitor and radioligand) and both types of samples were incubated for another hour. Incubation was terminated by rapid vacuum filtration over Whatman™ UniFilter™ 96-well GF/C microplates using a FilterMate™ Universal Harvester (PerkinElmer, Groningen, The Netherlands). Subsequently, the plates were washed ten times with ice-cold wash buffer (50 mM Tris–HCl, pH 7.4). Thereafter, the filters were dried for 45 min at 55 °C and 25 µL of Microscint (PerkinElmer) was added per well.
All experimental data was analyzed using GraphPad Prism 10.0.2 software (GraphPad Software Inc., San Diego, CA, USA). [^3H]NBTI assays were baseline-corrected with NSB and normalized to this value (0%) and TB (100%). The radioligand displacement curves were fitted to a one-site binding model by nonlinear regression from which the pIC50 values were obtained. […] Data shown represent the mean ± SD of at least two or mean ± SEM of at least three individual experiments each performed in duplicate.
Next, the potentially covalent inhibitors that we synthesized were subjected to the aforementioned radioligand displacement assay. To study the existence of a covalent interaction with hENT1, an additional preincubation step was included.

[1] = Ki (nM) at 4 h preincubation, 4 h preincubation at 10 °C
[2] = pKi ± SEM at 4 h preincubation, 4 h preincubation at 10 °C
[3] = without preincubation, read-out: Ki (nM) without preincubation (converted)

Row | SMILES | % displacement at 1 μM at 4 h preincubation (4 h preincubation at 10 °C) | % displacement at 1 μM without preincubation (without preincubation) | also measured
1 | COc1cc(C(=O)OCCCN2CCN(CCOC(=O)c3cccc(S(=O)(=O)F)c3)CC2)cc(OC)c1OC [Compound 9a, 3-(4-(2-((3-(fluorosulfonyl)benzoyl)oxy)ethyl)piperazin-1-yl)propyl 3,4,5-trimethoxybenzoate] | 3 (-9, 13) % | -14 (-21, -7) % | –
2 | COc1cc(C(=O)OCCCN2CCN(CCCOC(=O)c3cccc(S(=O)(=O)F)c3)CC2)cc(OC)c1OC [Compound 9b, 3-(4-(3-((3-(fluorosulfonyl)benzoyl)oxy)propyl)piperazin-1-yl)propyl 3,4,5-trimethoxybenzoate] | 33 (32, 34) % | 33 (32, 33) % | –
3 | COc1cc(C(=O)OCCCN2CCN(CCCCOC(=O)c3cccc(S(=O)(=O)F)c3)CC2)cc(OC)c1OC [Compound 9c, 3-(4-(4-((3-(fluorosulfonyl)benzoyl)oxy)butyl)piperazin-1-yl)propyl 3,4,5-trimethoxybenzoate] | 51 (48, 54) % | 61 (53, 69) % | –
4 | COc1cc(C(=O)OCCCN2CCN(CCOC(=O)c3ccc(S(=O)(=O)F)cc3)CC2)cc(OC)c1OC [Compound 9d, 3-(4-(2-((4-(fluorosulfonyl)benzoyl)oxy)ethyl)piperazin-1-yl)propyl 3,4,5-trimethoxybenzoate] | 33 (34, 32) % | 17 (12, 22) % | –
5 | COc1cc(C(=O)OCCCN2CCN(CCCOC(=O)c3ccc(S(=O)(=O)F)cc3)CC2)cc(OC)c1OC [Compound 9e, 3-(4-(3-((4-(fluorosulfonyl)benzoyl)oxy)propyl)piperazin-1-yl)propyl 3,4,5-trimethoxybenzoate] | 26 (30, 22) % | 26 (24, 27) % | –
6 | COc1cc(C(=O)OCCCN2CCN(CCCCOC(=O)c3ccc(S(=O)(=O)F)cc3)CC2)cc(OC)c1OC [Compound 9f, 3-(4-(4-((4-(fluorosulfonyl)benzoyl)oxy)butyl)piperazin-1-yl)propyl 3,4,5-trimethoxybenzoate] | 54 (53, 56) % | 57 (52, 62) % | –
7 | COc1cc(C(=O)OCCCN2CCN(CCCOC(=O)c3ccc(N=C=S)cc3)CC2)cc(OC)c1OC [Compound 9g, 3-(4-(3-((4-isothiocyanatobenzoyl)oxy)propyl)piperazin-1-yl)propyl 3,4,5-trimethoxybenzoate] | – | – | Ki [1]: 29.9 nM; Ki [2]: 29.5 nM; Ki [3]: 48.5 nM
8 | C=CC(=O)Nc1cccc(C(=O)OCCCN2CCN(CCCOC(=O)c3cc(OC)c(OC)c(OC)c3)CC2)c1 [Compound 10a, 3-(4-(3-((3-acrylamidobenzoyl)oxy)propyl)piperazin-1-yl)propyl 3,4,5-trimethoxybenzoate] | 24 (18, 30) % | 20 (15, 26) % | [3H]NBTI displacement: around 20%
9 | C=CC(=O)Nc1ccc(C(=O)OCCCN2CCN(CCCOC(=O)c3cc(OC)c(OC)c(OC)c3)CC2)cc1 [Compound 10b, 3-(4-(3-((4-acrylamidobenzoyl)oxy)propyl)piperazin-1-yl)propyl 3,4,5-trimethoxybenzoate] | – | – | time-dependent shift in affinity (pKi shift) or displacement upon 4 h preincubation: absence of a pKi shift; Ki [1]: 43.6 nM; Ki [3]: 33.1 nM
10 | C=CC(=O)Nc1ccc(C(=O)OCCCCN2CCN(CCCOC(=O)c3cc(OC)c(OC)c(OC)c3)CC2)cc1 [Compound 10c, 3-(4-(4-((4-acrylamidobenzoyl)oxy)butyl)piperazin-1-yl)propyl 3,4,5-trimethoxybenzoate] | 41 (30, 51) % | 47 (40, 54) % | –
11 | C=CC(=O)Nc1ccc(C(=O)OCCCN2CCN(CCCOC(=O)c3cc(OC)c(OC)c(OC)c3)CC2)cc1OC [Compound 10d, 3-(4-(3-((4-acrylamido-3-methoxybenzoyl)oxy)propyl)piperazin-1-yl)propyl 3,4,5-trimethoxybenzoate] | – | 27 (28, 26) % | [3H]NBTI displacement: around 20%
12 | C=CC(=O)NCc1ccc(C(=O)OCCCN2CCN(CCCOC(=O)c3cc(OC)c(OC)c(OC)c3)CC2)cc1 [Compound 10e, 3-(4-(3-((4-(acrylamidomethyl)benzoyl)oxy)propyl)piperazin-1-yl)propyl 3,4,5-trimethoxybenzoate] | 29 (20, 37) % | 29 (24, 35) % | –
13 | C=CC(=O)NCCc1ccc(C(=O)OCCCN2CCN(CCCOC(=O)c3cc(OC)c(OC)c(OC)c3)CC2)cc1 [Compound 10f, 3-(4-(3-((4-(2-acrylamidoethyl)benzoyl)oxy)propyl)piperazin-1-yl)propyl 3,4,5-trimethoxybenzoate] | 7 (0, 13) % | 10 (2, 18) % | –
14 | C=CC(=O)NCCOc1c(OC)cc(C(=O)OCCCN2CCN(CCCOC(=O)c3cc(OC)c(OC)c(OC)c3)CC2)cc1OC [Compound 14a, 3-(4-(3-((4-(2-acrylamidoethoxy)-3,5-dimethoxybenzoyl)oxy)propyl)piperazin-1-yl)propyl 3,4,5-trimethoxybenzoate] | – | – | time-dependent shift in affinity (pKi shift) or displacement upon 4 h preincubation: no observable pKi shift; Ki [1]: 50.6 nM; Ki [3]: 48.6 nM
15 | C=CC(=O)NCCCOc1c(OC)cc(C(=O)OCCCN2CCN(CCCOC(=O)c3cc(OC)c(OC)c(OC)c3)CC2)cc1OC [Compound 14b, 3-(4-(3-((4-(3-acrylamidopropoxy)-3,5-dimethoxybenzoyl)oxy)propyl)piperazin-1-yl)propyl 3,4,5-trimethoxybenzoate] | – | – | time-dependent shift in affinity (pKi shift) or displacement upon 4 h preincubation: no significant increase of the affinity; Ki [2]: 3.24 nM; Ki [3]: 5.9 nM
16 | COc1cc(C(=O)OCCCN2CCN(CCCOC(=O)c3cc(OC)c(OCCCN=C=S)c(OC)c3)CC2)cc(OC)c1OC [Compound 14c, 3-(4-(3-((4-(3-isothiocyanatopropoxy)-3,5-dimethoxybenzoyl)oxy)propyl)piperazin-1-yl)propyl 3,4,5-trimethoxybenzoate] | – | – | time-dependent shift in affinity (pKi shift) or displacement upon 4 h preincubation: no significant increase of the affinity; Ki [2]: 1.55 nM; Ki (without preincubation, read-out: pKi ± SEM without preincubation (converted)): 1.07 nM
17 | C=CS(=O)(=O)NCCCOc1c(OC)cc(C(=O)OCCCN2CCN(CCCOC(=O)c3cc(OC)c(OC)c(OC)c3)CC2)cc1OC [Compound 14d, 3-(4-(3-((3,5-dimethoxy-4-(3-(vinylsulfonamido)propoxy)benzoyl)oxy)propyl)piperazin-1-yl)propyl 3,4,5-trimethoxybenzoate] | – | – | time-dependent shift in affinity (pKi shift) or displacement upon 4 h preincubation: no significant increase of the affinity; Ki [1]: 14.2 nM; Ki [3]: 17.5 nM

Source: PMC12061832, “Exploring novel dilazep derivatives as hENT1 inhibitors and potentially covalent molecular tools” (Purinergic Signalling, 2024)
